Data from the NIST ThermoML archive (doi:10.1021/je050200w).

Assay: xn = mol fraction of the nth substance listed
Details: 101 kPa, Liquid

CCCCCCCCCO [nonan-1-ol] + CCCCCCCCO
Details	mass density [kg/m3]	viscosity [mPa·s]
283.15 K, x2 = 0	835	17.44
283.15 K, x2 = 0.1001	834.6	16.99
283.15 K, x2 = 0.1998	834.4	16.57
283.15 K, x2 = 0.2999	834.1	16.21
283.15 K, x2 = 0.4003	833.8	15.79
283.15 K, x2 = 0.5001	833.5	15.41
283.15 K, x2 = 0.6001	833.2	15.01
283.15 K, x2 = 0.7	832.9	14.55
283.15 K, x2 = 0.8001	832.7	14.21
283.15 K, x2 = 0.9001	832.3	13.9
288.15 K, x2 = 0	831.5	14.27
288.15 K, x2 = 0.1001	831.3	13.92
288.15 K, x2 = 0.1998	831	13.61
288.15 K, x2 = 0.2999	830.7	13.2
288.15 K, x2 = 0.4003	830.4	12.83
288.15 K, x2 = 0.5001	830.1	12.5
288.15 K, x2 = 0.6001	829.8	12.26
288.15 K, x2 = 0.7	829.5	11.97
288.15 K, x2 = 0.8001	829.3	11.59
288.15 K, x2 = 0.9001	828.9	11.33
293.15 K, x2 = 0	828.1	11.63
293.15 K, x2 = 0.1001	827.8	11.38
293.15 K, x2 = 0.1998	827.6	11.12
293.15 K, x2 = 0.2999	827.3	10.79
293.15 K, x2 = 0.4003	827	10.55
293.15 K, x2 = 0.5001	826.7	10.26
293.15 K, x2 = 0.6001	826.4	10.04
293.15 K, x2 = 0.7	826.1	9.838
293.15 K, x2 = 0.8001	825.8	9.525
293.15 K, x2 = 0.9001	825.5	9.303
298.15 K, x2 = 0	824.7	9.519
298.15 K, x2 = 0.1001	824.4	9.353
298.15 K, x2 = 0.1998	824.1	9.135
298.15 K, x2 = 0.2997	823.8	8.957
298.15 K, x2 = 0.4003	823.5	8.749
298.15 K, x2 = 0.4996	823.2	8.582
298.15 K, x2 = 0.6001	822.9	8.43
298.15 K, x2 = 0.7	822.6	8.238
298.15 K, x2 = 0.8001	822.4	7.976
298.15 K, x2 = 0.9001	822	7.786
303.15 K, x2 = 0	821.3	7.806
303.15 K, x2 = 0.1001	821	7.679
303.15 K, x2 = 0.1998	820.7	7.537
303.15 K, x2 = 0.2997	820.4	7.35
303.15 K, x2 = 0.4003	820.1	7.171
303.15 K, x2 = 0.5001	819.8	7.057
303.15 K, x2 = 0.6001	819.5	6.936
303.15 K, x2 = 0.7	819.2	6.779
303.15 K, x2 = 0.8001	818.9	6.634
303.15 K, x2 = 0.9001	818.6	6.494
308.15 K, x2 = 0	817.8	6.604
308.15 K, x2 = 0.1001	817.5	6.479
308.15 K, x2 = 0.1998	817.2	6.356
308.15 K, x2 = 0.2999	816.9	6.212
308.15 K, x2 = 0.4003	816.6	6.055
308.15 K, x2 = 0.5001	816.3	5.963
308.15 K, x2 = 0.6001	816	5.862
308.15 K, x2 = 0.7	815.7	5.743
308.15 K, x2 = 0.8001	815.4	5.625
308.15 K, x2 = 0.9001	815	5.51
313.15 K, x2 = 0	814.3	5.668
313.15 K, x2 = 0.1001	814	5.579
313.15 K, x2 = 0.1998	813.7	5.458
313.15 K, x2 = 0.2999	813.4	5.377
313.15 K, x2 = 0.4003	813.1	5.258
313.15 K, x2 = 0.5001	812.8	5.181
313.15 K, x2 = 0.6001	812.5	5.068
313.15 K, x2 = 0.7	812.2	4.957
313.15 K, x2 = 0.8001	812	4.872
313.15 K, x2 = 0.9001	811.6	4.773

CCCCCCCCCO [nonan-1-ol] + CCCCCCCCCCO
Details	mass density [kg/m3]	viscosity [mPa·s]
283.15 K, x1 = 0.1009	836.5	21.5
283.15 K, x1 = 0.2	836.4	21.12
283.15 K, x1 = 0.3	836.2	20.65
283.15 K, x1 = 0.4002	836	20.15
283.15 K, x1 = 0.5001	835.9	19.71
283.15 K, x1 = 0.6003	835.7	19.17
283.15 K, x1 = 0.6996	835.6	18.59
283.15 K, x1 = 0.7999	835.4	18.14
283.15 K, x1 = 0.9047	835.2	17.78
283.15 K, x1 = 1	835	17.44
288.15 K, x1 = 0.1009	833.2	17.44
288.15 K, x1 = 0.2	833	17.06
288.15 K, x1 = 0.3	832.8	16.69
288.15 K, x1 = 0.3999	832.7	16.2
288.15 K, x1 = 0.5001	832.5	15.82
288.15 K, x1 = 0.6003	832.3	15.44
288.15 K, x1 = 0.6996	832.2	15.2
288.15 K, x1 = 0.7999	832	14.85
288.15 K, x1 = 0.9047	831.8	14.48
288.15 K, x1 = 1	831.5	14.27
293.15 K, x1 = 0.1009	829.8	14.1
293.15 K, x1 = 0.2	829.6	13.73
293.15 K, x1 = 0.3	829.5	13.5
293.15 K, x1 = 0.3999	829.3	13.22
293.15 K, x1 = 0.5	829.1	13
293.15 K, x1 = 0.6003	829	12.48
293.15 K, x1 = 0.6996	828.8	12.36
293.15 K, x1 = 0.7999	828.6	12.09
293.15 K, x1 = 0.9047	828.4	11.83
293.15 K, x1 = 1	828.1	11.63
298.15 K, x1 = 0.1009	826.4	11.52
298.15 K, x1 = 0.2	826.2	11.36
298.15 K, x1 = 0.3	826.1	11.13
298.15 K, x1 = 0.4002	825.9	10.87
298.15 K, x1 = 0.5	825.7	10.62
298.15 K, x1 = 0.6003	825.5	10.38
298.15 K, x1 = 0.6996	825.4	10.17
298.15 K, x1 = 0.7999	825.1	9.933
298.15 K, x1 = 0.9047	824.9	9.725
298.15 K, x1 = 1	824.7	9.519
303.15 K, x1 = 0.1009	822.9	9.398
303.15 K, x1 = 0.2	822.8	9.242
303.15 K, x1 = 0.3	822.6	9.083
303.15 K, x1 = 0.4002	822.4	8.886
303.15 K, x1 = 0.5001	822.2	8.703
303.15 K, x1 = 0.6003	822	8.504
303.15 K, x1 = 0.6996	821.9	8.332
303.15 K, x1 = 0.7999	821.7	8.16
303.15 K, x1 = 0.9047	821.5	7.929
303.15 K, x1 = 1	821.3	7.806
308.15 K, x1 = 0.1009	819.5	7.867
308.15 K, x1 = 0.2	819.4	7.739
308.15 K, x1 = 0.3	819.1	7.613
308.15 K, x1 = 0.4002	819	7.453
308.15 K, x1 = 0.5	818.8	7.307
308.15 K, x1 = 0.6003	818.6	7.151
308.15 K, x1 = 0.6996	818.5	7.014
308.15 K, x1 = 0.7999	818.3	6.857
308.15 K, x1 = 0.9047	818	6.693
308.15 K, x1 = 1	817.8	6.604
313.15 K, x1 = 0.1009	816.1	6.704
313.15 K, x1 = 0.2	815.9	6.629
313.15 K, x1 = 0.3	815.7	6.517
313.15 K, x1 = 0.4002	815.6	6.4
313.15 K, x1 = 0.5001	815.3	6.234
313.15 K, x1 = 0.6003	815.2	6.15
313.15 K, x1 = 0.6996	815	6.026
313.15 K, x1 = 0.7999	814.8	5.87
313.15 K, x1 = 0.9047	814.5	5.779
313.15 K, x1 = 1	814.3	5.668
